Measurements taken from US20120263780A1, “Carbohydrate Entrapped Active Agent Delivery Composition and Articles Using the Same” (priority 2009, published 2012).

Key:
[1] = tested on: Staphylococcus aureus (ATCC #6538); assay: Zone of inhibition testing on agar plates; format: cell-based; conditions: for Observed Zone of Inhibition (mm): 7 day old sample; for Zone (mm): thymol powder in well
Protocol: The samples prepared above were cut into 10 mm-diameter circular sections of thymol-treated and untreated material. These samples were placed on a freshly streaked sample of staphylococcus aureus on trypticase soy agar. After 24 hours incubation at 37° C., plates were measured for zones of inhibitions surrounding the samples. To calculate the zone of inhibition, the test material was brought into contact with a known population of test microorganisms on an agar plate for a specified period of time. At the end of the contact time the area of inhibited colony formation around the test material was measured. The size of this area of no growth was a measure of leaching of the antimicrobial agent from the test material. In this procedure, the test material was cut into small discs and placed on an agar plate evenly spread with a test microorganism. The plates were incubated for 24 hours at ideal growth conditions. Following incubation, the diameter of the circle of no growth around the disc was measured. The zone of inhibition was reported as the difference between the sample disc diameter and the average of the measured no growth zone diameters. Materials and Reagents • Microorganisms: frozen stock of Staphylococcus aureus (ATCC 6538). • Mueller-Hinton agar (MHA) plates or equivalent plated media. Prepare following manufacturer's directions. Store at 4±2° C. Alternatively pre-made plates can be utilized. • Mueller-Hinton broth (MHB) or equivalent liquid media. Prepare following manufacturers directions. Store at 4±2° C. Alternately pre-made media can be utilized. • Sterile cotton swabs or equivalent. • Sterile forceps. • Positive control disc: Vanocymicin susceptibility discs (6 mm), 30 μg/disc (BD and Company; Sparks, Md.). • Test material, cut into 8 mm discs. • Calipers or other measuring device. • Other ancillary lab supplies. 2. Staphylococcus aureus (ATCC 6538) is inoculated from an overnight plate or MHB into 5 ml of sterile MHB in a 35° C. incubator for 18-24 hrs. 3. The overnight culture is then adjusted using MHB to the 0.5 McFarland barium sulphate standards (1×10^8 CFU/ml) or approximately 0.15 OD with a 0.2 cm light path at 660 nanometer. 1. Pre-warm, to room temperature, MHA plates. […] 3. Moisten a sterile applicator swab in the standardized cell suspension and express any excess moisture by rotating the swab against the glass above the liquid in the tube. Inoculate the entire surface of each plate, inoculating the surface completely in three different directions to ensure uniform growth. 5. Store the inoculated plates at room temperature for 10-15 minutes to allow the medium to absorb the moisture from the inoculum. 6. Apply discs of test material to the surface of the inoculated medium with a sterile forceps and tap them to ensure that they are in complete contact with the agar surface. A positive control (vancomycin disc) and negative control (uncoated disc) should be used on each plate. 7. Invert the inoculated plates and incubate them at 35° C. for 18-24 hours. 8. Examine the plates from the back, viewed against a black background and illuminated with reflected light. With calipers, measure the diameter of each zone of inhibition to the nearest whole millimeter. Zone of Inhibition=diameter of no growth area−diameter of disc First, exemplary Delivery Compositions 1 and 2 were created. A sucrose blend was melted on a stove top to prepare a carbohydrate matrix. An active agent was added to the molten sucrose to provide a 2% loading of thymol. After the mixture was melted, analysis was performed to determine the amount of thymol retained within the sucrose. Delivery Composition 1 contained approximately 0.72 wt. % thymol and Delivery Composition 2 contained approximately 0.74 wt. % thymol. Both Delivery Compositions 1 and 2 were placed in a well in a media with a plate inoculated with Staphylococcus aureus (ATCC #6538) and a zone of inhibition for each sample was measured as described above. […]

[2] = tested on: Staphylococcus aureus (ATCC #6538); assay: Shake flask test ASTM E2149-01, anti-bacterial activity of thymol-treated coform substrates; format: cell-based; conditions: 7 day old sample, 1 hour exposure
Protocol: Five sections of coform material approximately 17 cm by 17 cm were prepared and weighed to determine the amount of thymol needed for loading of thymol at a weight percent of 0.3%, 0.6% and 1.0%. The determined quantity of thymol to provide thymol as a percentage was placed in an excess (39.0 grams) of ethanol to be dissolved. The coform substrates were placed into a plastic bag and the ethanol/thymol mixture was added. Using a cylindrical glass jar rolled on the outside of the sealed plastic bag, the sheets were rolled to evenly express the liquid throughout the coform squares. The coform was then removed from the bag and placed in a fume hood to allow the ethanol to evaporate off. The remaining dry sheets containing thymol were removed from the hood after one hour and placed in a dry plastic bag. Samples were aged 7 days and tested for anti-bacterial activity. To determine the anti-bacterial activity of the samples after 7 days, the shake flask test of ASTM […]-01 “Standard Test Method for Determining the Antimicrobial Activity of Immobilized Antimicrobial Agents Under Dynamic Contact Conditions” was used. Approximately 1 gram samples of thymol-treated and untreated coform substrates were placed in individual capped flasks containing approximately 10^5 CFU of a Staphylococcus aureus (ATCC #6538) in phosphate buffered saline. Flasks were shaken at maximum speed on a wrist-action shaker for 1 hour. […] The active agent thymol has volatilized off of the sample within the 7 day time period.

[3] = 0.3% thymol add-on to coform substrate
[4] = 0.6% thymol add-on to coform substrate
[5] = 1% thymol add-on to coform substrate

SMILES: Cc1ccc(C(C)C)c(O)c1 [Thymol, thymol]
- Observed Zone of Inhibition (mm) [1, 3]: 0 mm
- Observed Zone of Inhibition (mm) [1, 4]: 0 mm
- Observed Zone of Inhibition (mm) [1, 5]: 0 mm
- zone of inhibition ([1]; neat powder, various amounts, after 1 day): 10-15 mm
- Zone (mm) ([1]; weight 0.0018 grams): 10 mm
- Zone (mm) ([1]; weight 0.0045 grams): 12 mm
- Zone (mm) ([1]; weight 0.0353 grams): 13 mm
- Zone (mm) ([1]; weight 0.0789 grams): 12 mm
- Zone (mm) ([1]; weight 0.1609 grams): 15 mm
- Log10 Reduction of Bacteria [2, 3]: No Reduction
- Log10 Reduction of Bacteria [2, 4]: No Reduction
- Log10 Reduction of Bacteria [2, 5]: No Reduction
